In patent publication US9353072B2, “Antimicrobial substituted thiazoles and methods of use” (Purdue Research Foundation, priority 2012, dated 2016):
Like-named read-outs stand apart in the source and are kept apart here.

Key:
[1] = tested on: MRSA ATCC 43300; assay: MIC/MBC broth microdilution, MRSA ATCC 43300; type: cell-based, Staphylococcus aureus; conditions: Staphylococcus aureus
Protocol: (§1) Determination of minimum inhibitory concentration (MIC). The MICs of the lead thiazole compound (compound 1a) and nine derivatives tested against all 18 MRSA strains were determined, in triplicate samples, using the broth microdilution method in accordance with the recommendations contained in the CLSI guidelines.

[2] = tested on: MRSA USA400 (NRS123); assay: MIC/MBC broth microdilution, NRS123 (USA400); type: cell-based; conditions: Staphylococcus aureus
Protocol: as §1

[3] = tested on: NRS107; assay: MIC/MBC broth microdilution, NRS107; type: cell-based; conditions: Staphylococcus aureus, Table 8, read-out: MIC
Protocol: as §1

[4] = tested on: NRS119; assay: MIC/MBC broth microdilution, NRS119; type: cell-based; conditions: Staphylococcus aureus; Table 8; NRS119; read-out: MIC
Protocol: as §1

[5] = tested on: MRSA USA500 (NRS385); assay: MIC/MBC broth microdilution, NRS385 (USA500); type: cell-based; conditions: Staphylococcus aureus
Protocol: as §1

[6] = tested on: VISA HIP07256 (NRS19); assay: MIC/MBC broth microdilution, NRS19 (VISA HIP07256); type: cell-based; conditions: Staphylococcus aureus
Protocol: as §1

[7] = tested on: MRSA NRS384 (USA300); assay: MIC/MBC broth microdilution, NRS384 (USA300); type: cell-based; conditions: Staphylococcus aureus
Protocol: as §1

[8] = tested on: NRS194; assay: MIC/MBC broth microdilution, NRS194; type: cell-based; conditions: Staphylococcus aureus, Table 8, read-out: MIC
Protocol: as §1

[9] = tested on: VISA LIM 3 (NRS37); assay: MIC/MBC broth microdilution, NRS37 (VISA LIM 3); type: cell-based; conditions: Staphylococcus aureus; Table 8; NRS37 (VISA); read-out: MIC
Protocol: as §1

[10] = tested on: MRSA ATCC 700699 (NRS1, VISA); assay: MIC/MBC broth microdilution, NRS1 (ATCC 700699); type: cell-based; conditions: Staphylococcus aureus
Protocol: as §1

[11] = Table 4, MRSA ATCC 43300, 64 μM down to 0.5 μM, 37° C., 19 hours, read-out: Minimum Inhibitory Concentration
[12] = Table 6, MRSA ATCC 43300, 128 μM down to 1.0 μM, 20 hours, read-out: MIC
[13] = Table 8, ATCC 43300, read-out: MIC
[14] = Table 8, NRS19 (VISA), read-out: MIC
[15] = Table 8, NRS1 (VISA), triplicates, 20 hours, read-out: MIC

CCCCc1ccc(-c2nc(C)c(C(=O)NNC(=O)c3sc(-c4ccc(CCCC)cc4)nc3C)s2)cc1 [Compound R3, 2-(4-butylphenyl)-N′-(2-(4-butylphenyl)-4-methylthiazole-5-carbonyl)-4-methylthiazole-5-carbohydrazide]
MIC [1, 11]: > 64 µM

CC(=O)c1ccc(-c2ccc(-c3nc(C)c(C(C)=O)s3)cc2)cc1 [Compound M9, 1-(4′-(5-acetyl-4-methylthiazol-2-yl)-[1,1′-biphenyl]-4-yl)ethanone]
MIC ([2]; Table 8, NRS123, read-out: MIC): > 128 µM
MIC [3]: > 128 µM
MIC [1, 12]: > 128 µM
MIC [1, 13]: > 128 µM
MIC [4]: > 128 µM
MIC ([5]; Table 8, NRS385, read-out: MIC): > 128 µM
MIC [6, 14]: > 128 µM
MIC ([7]; Table 8, NRS384, read-out: MIC): > 128 µM
MIC [8]: > 128 µM
MIC [9]: > 128 µM
MIC [10, 15]: > 128 µM

CC(=O)c1sc(-c2cccc(F)c2)nc1C [Compound M15, 1-(2-(3-fluorophenyl)-4-methylthiazol-5-yl)ethanone]
MIC ([1]; 20 h): > 128 µM

CCCCCCCC#Cc1ccc(-c2nc(C)c(/C(C)=N\NC(=N)N/N=C(\C)c3sc(-c4ccc(C#CCCCCCCC)cc4)nc3C)s2)cc1 [Compound M18]
MIC ([1]; 20 h): > 128 µM

CCCCc1ccc(-c2nc(C)c(/C(C)=N/NC(=N)N/N=C(\C)c3sc(-c4ccc(CCCC)cc4)nc3C)s2)cc1 [Compound M1]
MIC [1, 12]: > 128 µM

CC(=O)c1sc(-c2ccc(-c3cccc4ccccc34)cc2)nc1C [Compound M6, 1-(4-methyl-2-(4-(naphthalen-1-yl)phenyl)thiazol-5-yl)ethanone]
MIC ([2]; Table 8, NRS123, read-out: MIC): > 128 µM
MIC [3]: > 128 µM
MIC [1, 12]: > 128 µM
MIC [1, 13]: > 128 µM
MIC [4]: > 128 µM
MIC ([5]; Table 8, NRS385, read-out: MIC): > 128 µM
MIC [6, 14]: > 128 µM
MIC ([7]; Table 8, NRS384, read-out: MIC): > 128 µM
MIC [8]: > 128 µM
MIC [9]: > 128 µM
MIC [10, 15]: > 128 µM

C/C(=N/NC(=N)N)c1sc(-c2cc[nH]n2)nc1C [Compound M24, (Z)-2-(1-(4-methyl-2-(1H-pyrazol-3-yl)thiazol-5-yl)ethylidene)hydrazinecarboximidamide]
MIC [1, 12]: > 128 µM

CCCCc1ccc(-c2nc(C)c(-c3nnn[nH]3)s2)cc1 [Compound R2, 2-(4-butylphenyl)-4-methyl-5-(1H-tetrazol-5-yl)thiazole]
MIC [1, 11]: > 64 µM

CC(=O)c1sc(-c2cc[nH]n2)nc1C [Compound M22, 1-(4-Methyl-2-(1H-pyrazol-3-yl)thiazol-5-yl)ethanone]
MIC [1, 12]: > 128 µM

CCCCCCCCCc1ccc(-c2nc(C)c(/C(C)=N/NC(=N)N)s2)cc1 [Compound 1f]
MIC ([2]; Table 2, MRSA USA400, read-out: Minimum Inhibitory Concentration): 4.4 µg/mL
MIC ([5]; Table 2, MRSA USA500, read-out: Minimum Inhibitory Concentration): 4.4 µg/mL
MIC ([6]; Table 2, VISA HIP07256, read-out: Minimum Inhibitory Concentration): 2.2 µg/mL
MIC ([7]; Table 2, MRSA USA300, read-out: Minimum Inhibitory Concentration): 2.2 µg/mL
MIC ([10]; Table 2, MRSA ATCC 700699, read-out: Minimum Inhibitory Concentration): 1.1 µg/mL

CC(=O)c1sc(-c2ccc(-c3ccc(O)cc3)cc2)nc1C [Compound M4, 1-(2-(4′-hydroxy-[1,1′-biphenyl]-4-yl)-4-methylthiazol-5-yl)ethanone]
MIC [1, 12]: > 128 µM

CC(=O)c1sc(-c2ccc(-c3ccc(-c4nc(C)c(C(C)=O)s4)cc3)cc2)nc1C [Compound M21, 1,1′-(2,2′-([1,1′-Biphenyl]-4,4′-diyl)bis(4-methylthiazole-5,2-diyl))diethanone]
MIC [1, 12]: > 128 µM

CC(=O)c1sc(-c2ccc(-c3cc(C)cc(C)c3)cc2)nc1C [Compound M7, 1-(2-(3′,5′-dimethyl-[1,1′-biphenyl]-4-yl)-4-methylthiazol-5-yl)ethanone]
MIC [1, 12]: > 128 µM

COc1cc(OC)cc(-c2ccc(-c3nc(C)c(C(C)=O)s3)cc2)c1 [Compound M19, 1-(2-(3′,5′-dimethoxy-[1,1′-biphenyl]-4-yl)-4-methylthiazol-5-yl)ethanone]
MIC ([1]; 20 h): > 128 µM
